`Cn1c(C(=O)N2CCN(Cc3ccc4c(c3)OCO4)CC2)cc2cc(Oc3ccc(NC(=O)c4ccc(-n5cccc5)nc4)cn3)ccc21` [Example 225, N-{6-[2-(4-Benzo[1,3]dioxol-5-ylmethylpiperazine-1-carbonyl)-1-methyl-1H-indol-5-yloxy]pyridin-3-yl}-6-pyrrol-1-ylnicotinamide] came in with a melting point of 155 to 158 °C.
For `COc1ccc(CN2CCN(C(=O)c3cc4cc(Oc5ccc(NC(=O)c6ccc(-n7cccc7)nc6)cn5)ccc4n3C)CC2)cc1` [Example 226, N-(6-{2-[4-(4-Methoxybenzyl)piperazine-1-carbonyl]-1-methyl-1H-indol-5-yloxy}pyridin-3-yl)-6-pyrrol-1-ylnicotinamide] the value was 194 to 195 °C; for `COc1ccc(CN2CCN(C(=O)c3cc4cc(Oc5ccc(N(C)C(=O)c6ccc(-n7cccc7)nc6)cn5)ccc4n3C)CC2)cc1.O=C(O)C(=O)O.O=C(O)C(=O)O` [Example 227, N-(6-{2-[4-(4-Methoxybenzyl)piperazine-1-carbonyl]-1-methyl-1H-indol-5-yloxy}pyridin-3-yl)-N-methyl-6-pyrrol-1-ylnicotinamide dioxalate], 185 to 187 °C; for `Br.COc1ccc(CN2CCN(C(=O)c3cc4cc(Oc5ccc(NC(=O)c6cc7cc(Br)ccc7[nH]6)cn5)ccc4n3C)CC2)cc1` [Example 228, 5-Bromo-1H-indole-2-carboxylic acid (6-{2-[4-(4-methoxybenzyl)-piperazine-1-carbonyl]-1-methyl-1H-indol-5-yloxy}pyridin-3-yl)-amide hydrobromide], 263 to 265 °C.
`COc1ccc(CN2CCN(C(=O)c3cc4cc(Oc5ccc(N(C)C(=O)c6cc7cc(Br)ccc7[nH]6)cn5)ccc4n3C)CC2)cc1.O=C(O)/C=C\C(=O)O` [Example 229, 5-Bromo-1H-indole-2-carboxylic acid (6-{2-[4-(4-methoxybenzyl)-piperazine-1-carbonyl]-1-methyl-1H-indol-5-yloxy}pyridin-3-yl)-methylamide maleate] gave a melting point of 205 to 207 °C.
In turn, `Br.Br.COc1ccc(CN2CCN(C(=O)c3cc4cc(Oc5ccc(NC(=O)c6ccc(C(F)(F)F)cn6)cn5)ccc4n3C)CC2)cc1` [Example 230, 5-Trifluoromethylpyridine-2-carboxylic acid (6-{2-[4-(4-methoxy-benzyl)piperazine-1-carbonyl]-1-methyl-1H-indol-5-yloxy}pyridin-3-yl)amide dihydrobromide] gave a melting point of 241 to 243 °C.
Turning to `Br.COc1ccc(CN2CCN(C(=O)c3cc4cc(Oc5ccc(NC(=O)c6ccc(C(F)(F)F)cc6Cl)cn5)ccc4n3C)CC2)cc1` [Example 231, 2-Chloro-N-(6-{2-[4-(4-methoxybenzyl)piperazine-1-carbonyl]-1-methyl-1H-indol-5-yloxy}pyridin-3-yl)-4-trifluoromethylbenzamide hydrobromide], the melting point is 239 to 241 °C.
As for `COc1ccc(CNC2CCN(C(=O)c3cc4cc(Oc5ccc(NC(=O)c6ccc(C(F)(F)F)cc6)cn5)ccc4n3C)CC2)cc1` [Example 233, N-[6-(2-{4-[(4-Methoxyphenyl)methylamino]piperidine-1-carbonyl}-1-methyl-1H-indol-5-yloxy)pyridin-3-yl]-4-trifluoromethyl-benzamide], the melting point is 139 to 142 °C.
In turn, `CS(=O)(=O)O.CS(=O)(=O)O.Cc1c(Oc2ccc(NC(=O)c3ccc(C(F)(F)F)cc3)cn2)ccc2c1cc(C(=O)N1CCN(Cc3ccccn3)CC1)n2C` [Example 234, N-{6-[1,4-Dimethyl-2-(4-pyridin-2-ylmethylpiperazine-1-carbonyl)-1H-indol-5-yloxy]pyridin-3-yl}-4-trifluoromethylbenzamide bismethanesulfonate] displayed a melting point of 149 to 150 °C.
In turn, `COc1ccc(CN2CCN(C(=O)c3cc4c(C)c(Oc5ccc(NC(=O)c6ccc(C(F)(F)F)cc6)cn5)ccc4n3C)CC2)cc1` [Example 235, N-(6-{2-[4-(4-Methoxybenzyl)piperazine-1-carbonyl]-1,4-dimethyl-1H-indol-5-yloxy}pyridin-3-yl)-4-trifluoromethylbenzamide] showed a melting point of 219 to 221 °C.
The compound `Cn1c(C(=O)N2CCN(Cc3ccccn3)CC2)cc2ccc(Oc3ccc(NC(=O)c4ccc(C(F)(F)F)cc4)cn3)cc21.O=C(O)C(=O)O.O=C(O)C(=O)O` [Example 236, N-{6-[1-Methyl-2-(4-pyridin-2-ylmethylpiperazine-1-carbonyl)-1H-indol-6-yloxy]pyridin-3-yl}-4-trifluoromethylbenzamide dioxalate] came in with a melting point of 176 to 178 °C.
For `Cn1c(C(=O)N2CCN(C(=O)c3ccccn3)CC2)cc2cc(Oc3ccc(NC(=O)c4ccc(C(F)(F)F)cc4)cn3)ccc21` [Example 239, N-(6-{1-Methyl-2-[4-(pyridine-2-carbonyl)piperazine-1-carbonyl]-1H-indol-5-yloxy}pyridin-3-yl)-4-trifluoromethylbenzamide] the value was 162 to 164 °C; for `COc1ccc(C(=O)N2CCN(C(=O)c3cc4cc(Oc5ccc(NC(=O)c6ccc(C(F)(F)F)cc6)cn5)ccc4n3C)CC2)cc1` [Example 240, N-(6-{2-[4-(4-Methoxybenzoyl)piperazine-1-carbonyl]-1-methyl-1H-indol-5-yloxy}pyridin-3-yl)-4-trifluoromethylbenzamide], 195 to 196 °C; for `COc1ccc(C(=O)N2CCN(C(=O)c3cc4cc(Oc5ccc(N(C)C(=O)c6ccc(C(F)(F)F)cc6)cn5)ccc4n3C)CC2)cc1` [Example 241, N-(6-{2-[4-(4-Methoxybenzoyl)piperazine-1-carbonyl]-1-methyl-1H-indol-5-yloxy}pyridin-3-yl)-N-methyl-4-trifluoromethylbenzamide], 126 to 128 °C.
Take `CN(C(=O)c1ccc(C(F)(F)F)cc1)c1ccc(Oc2ccc3c(c2)cc(C(=O)N2CCN(C(=O)c4ccc(C#N)cc4)CC2)n3C)nc1` [Example 242, N-(6-{2-[4-(4-Cyanobenzoyl)piperazine-1-carbonyl]-1-methyl-1H-indol-5-yloxy}pyridin-3-yl)-N-methyl-4-trifluoromethylbenzamide]: the melting point fell in the range of 135 to 137 °C.
In the case of `Cn1c(C(=O)N2CCN(Cc3ccccn3)CC2)cc2cccc(Oc3ccc(NC(=O)c4ccc(C(F)(F)F)cc4)cn3)c21.O=C(O)C(=O)O.O=C(O)C(=O)O` [Example 243, N-{6-[1-Methyl-2-(4-pyridin-2-ylmethylpiperazine-1-carbonyl)-1H-indol-7-yloxy]pyridin-3-yl}-4-trifluoromethylbenzamide dioxalate] it was 121 to 123 °C; in that of `Cn1c(C(=O)N2CCN(Cc3ccc(C#N)cc3)CC2)cc2cccc(Oc3ccc(NC(=O)c4ccc(C(F)(F)F)cc4)cn3)c21` [Example 245, N-(6-{2-[4-(4-Cyanobenzyl)piperazine-1-carbonyl]-1-methyl-1H-indol-7-yloxy}pyridin-3-yl)-4-trifluoromethylbenzamide], 228 to 229 °C; in that of `Br.Cn1c(C(=O)N2CCN(Cc3ccccn3)CC2)cc2c(Oc3ccc(NC(=O)c4ccc(C(F)(F)F)cc4)cn3)cccc21` [Example 246, N-{6-[1-Methyl-2-(4-pyridin-2-ylmethylpiperazine-1-carbonyl)-1H-indol-4-yloxy]pyridin-3-yl}-4-trifluoromethylbenzamide hydrobromide], 186 to 189 °C.
Turning to `Br.Cn1c(C(=O)N2CCN(Cc3ccc(OC(F)(F)C(F)F)cc3)CC2)cc2ccc(Oc3ccc(NC(=O)c4ccc(C(F)(F)F)cc4)cn3)cc21` [Example 250, N-[6-(1-Methyl-2-{4-[4-(1,1,2,2-tetrafluoroethoxy)benzyl]-piperazine-1-carbonyl}-1H-indol-6-yloxy)pyridin-3-yl]-4-tri-fluoromethylbenzamide hydrobromide], the melting point is 279 to 282 °C (dec.).
Regarding `Br.CC(C)Oc1ccc(CN2CCN(C(=O)c3cc4ccc(Oc5ccc(NC(=O)c6ccc(OC(F)(F)F)cc6)cn5)cc4n3C)CC2)cc1` [Example 251, N-(6-{2-[4-(4-Isopropoxybenzyl)piperazine-1-carbonyl]-1-methyl-1H-indol-6-yloxy}pyridin-3-yl)-4-trifluoromethoxybenzamide hydrobromide], the melting point is 265 to 267 °C (dec.).
Compound `Br.Cn1c(C(=O)N2CCN(Cc3ccc(OC(F)F)cc3)CC2)cc2ccc(Oc3ccc(NC(=O)c4ccc(Cl)c(Cl)c4)cn3)cc21` [Example 254, 3,4-Dichloro-N-(6-{2-[4-(4-difluoromethoxybenzyl)piperazine-1-carbonyl]-1-methyl-1H-indol-6-yloxy}pyridin-3-yl)benzamide hydrobromide] came in with a melting point of 249 to 253.7 °C.
Compound `Br.CC(C)Oc1ccc(CN2CCN(C(=O)c3cc4ccc(Oc5ccc(NC(=O)c6ccc(Cl)c(Cl)c6)cn5)cc4n3C)CC2)cc1` [Example 255, 3,4-Dichloro-N-(6-{2-[4-(4-isopropoxybenzyl)piperazine-1-carbonyl]-1-methyl-1H-indol-6-yloxy}pyridin-3-yl)benzamide hydrobromide] displayed a melting point of 239.7 to 243.5 °C.
For `Br.CCCOc1ccc(CN2CCN(C(=O)c3cc4ccc(Oc5ccc(NC(=O)c6ccc(Cl)c(Cl)c6)cn5)cc4n3C)CC2)cc1` [Example 256, 3,4-Dichloro-N-(6-{1-methyl-2-[4-(4-propoxybenzyl)piperazine-1-carbonyl]-1H-indol-6-yloxy}pyridin-3-yl)benzamide hydrobromide] the value was 239.2 to 240.4 °C; for `Br.Cn1c(C(=O)N2CCN(Cc3ccc4c(c3)OCO4)CC2)cc2ccc(Oc3ccc(NC(=O)c4ccc(Cl)c(Cl)c4)cn3)cc21` [Example 257, N-{6-[2-(4-Benzo[1,3]dioxol-5-ylmethylpiperazine-1-carbonyl)-1-methyl-1H-indol-6-yloxy]pyridin-3-yl}-3,4-dichlorobenzamide hydrobromide], 241.3 to 243.9 °C; for `Br.COc1ccc(CN2CCN(C(=O)c3cc4ccc(Oc5ccc(NC(=O)c6ccc(Cl)c(Cl)c6)cn5)cc4n3C)CC2)cc1` [Example 258, 3,4-Dichloro-N-(6-{2-[4-(4-methoxybenzyl)piperazine-1-carbonyl]-1-methyl-1H-indol-6-yloxy}pyridin-3-yl)benzamide hydrobromide], 234.6 to 237.2 °C.
